Source: patent publication US9133148B2, “Carbamate compounds and of making and using same” (Abide Therapeutics, Inc., priority 2012, dated 2015)
pIC50: −log10 of the molar value.

Key:
Mouse brain MAGL = Mouse brain MAGL (Mus musculus (Mouse), UniProt O35678); experiment: Mouse brain proteomes from inhibitor treated mice (oral gavage, ABPP of brain MAGL); format: in vivo; details: for Mouse brain MAGL (% inhibition at 20 mg/kg, p.o.) / Mouse brain MAGL (% inhibition at 5 mg/kg, p.o.): 4 h following administration; for ED50: po
Protocol: Preparation of Mouse Brain Proteomes from Inhibitor Treated Mice.
Inhibitors were administered to wild-type C57Bl/6J by oral gavage in a vehicle of polyethylene glycol.

ABHD6 [1] = target: T1, ABHD6 (Mus musculus (Mouse), UniProt Q8R2Y0); experiment: In vitro competitive activity-based protein profiling (FP-Rh), mouse ABHD6; format: biochemical; details: mouse brain membrane proteome
Protocol: (§1) In Vitro Competitive Activity-Based Protein Profiling.
(§2) Proteomes (mouse brain membrane fraction or cell lysates) ([…], 1.0 mg/mL total protein concentration) were preincubated with varying concentrations of inhibitors at 37° C. After 30 min, FP-Rh (1.0 μL, 50 μM in DMSO) was added and the mixture was incubated for another 30 min at 37° C. Reactions were quenched with SDS loading buffer (50 μL—4×) and run on SDS-PAGE.

Human MAGL = Human MAGL (Homo sapiens (Human), UniProt Q99685); experiment: Competitive ABPP with recombinant human MAGL expressed in HEK293T cells; format: biochemical
Protocol: as §2
Recombinant Expression of Human MAGL in HEK293T Cells.
Cell lysates were diluted with mock proteomes for use in competitive ABPP experiments.

FAAH [2] = target: T2, FAAH (Mus musculus (Mouse), UniProt O08914); experiment: In vitro competitive activity-based protein profiling (FP-Rh), mouse FAAH; format: biochemical; details: mouse brain membrane proteome
Protocol: as §1, §2

MAGL [3] = target: T3, MAGL (Mus musculus (Mouse), UniProt O35678); experiment: In vitro competitive activity-based protein profiling (FP-Rh), mouse MAGL; format: biochemical; details: mouse brain membrane proteome
Protocol: as §1, §2

ABHD6 [4] = target: T1, ABHD6; experiment: Competitive ABPP, % inhibition at 1 uM, ABHD6; format: biochemical
Protocol: as §1, §2

MAGL [5] = target: T3, MAGL; experiment: Competitive ABPP, % inhibition at 1 uM, MAGL; format: biochemical
Protocol: as §1, §2

FAAH [6] = target: T2, FAAH; experiment: Competitive ABPP, % inhibition at 1 uM, FAAH; format: biochemical
Procedure, shortened: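 Mouse brain membrane proteome or cell lysate (1.0 mg/mL protein) preincubated 30 min at 37° C with inhibitor, then labelled 30 min at 37° C with FP-Rh probe. Resolved by SDS-PAGE; activity from in-gel fluorescence intensity of FAAH band.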

T2 sequence (O08914 whole entry): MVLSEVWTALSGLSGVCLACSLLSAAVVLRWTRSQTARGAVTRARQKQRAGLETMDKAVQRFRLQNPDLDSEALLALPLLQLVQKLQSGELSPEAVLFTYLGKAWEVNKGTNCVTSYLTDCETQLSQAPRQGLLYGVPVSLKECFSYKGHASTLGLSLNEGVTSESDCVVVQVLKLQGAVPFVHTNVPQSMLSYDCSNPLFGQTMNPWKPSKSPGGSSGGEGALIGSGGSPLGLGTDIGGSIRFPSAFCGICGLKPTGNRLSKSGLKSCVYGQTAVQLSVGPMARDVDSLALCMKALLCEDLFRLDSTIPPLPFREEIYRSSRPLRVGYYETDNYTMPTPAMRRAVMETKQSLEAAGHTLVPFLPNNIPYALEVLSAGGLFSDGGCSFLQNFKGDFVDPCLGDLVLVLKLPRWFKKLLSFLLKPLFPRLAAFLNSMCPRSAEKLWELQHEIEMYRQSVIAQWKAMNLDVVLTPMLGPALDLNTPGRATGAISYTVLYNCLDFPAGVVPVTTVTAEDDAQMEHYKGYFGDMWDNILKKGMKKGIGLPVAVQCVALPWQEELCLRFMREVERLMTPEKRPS
T1 sequence (Q8R2Y0 whole entry): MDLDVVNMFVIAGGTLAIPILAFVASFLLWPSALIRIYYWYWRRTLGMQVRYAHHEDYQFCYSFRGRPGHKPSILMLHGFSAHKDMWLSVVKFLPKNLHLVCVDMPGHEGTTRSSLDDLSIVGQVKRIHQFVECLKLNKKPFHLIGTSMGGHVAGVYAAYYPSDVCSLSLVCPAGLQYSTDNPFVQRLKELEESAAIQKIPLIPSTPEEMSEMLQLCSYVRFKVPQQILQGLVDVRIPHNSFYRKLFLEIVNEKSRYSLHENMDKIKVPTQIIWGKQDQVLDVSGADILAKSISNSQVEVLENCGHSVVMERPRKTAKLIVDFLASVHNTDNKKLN
Sequence of Mouse brain MAGL (O35678 whole entry): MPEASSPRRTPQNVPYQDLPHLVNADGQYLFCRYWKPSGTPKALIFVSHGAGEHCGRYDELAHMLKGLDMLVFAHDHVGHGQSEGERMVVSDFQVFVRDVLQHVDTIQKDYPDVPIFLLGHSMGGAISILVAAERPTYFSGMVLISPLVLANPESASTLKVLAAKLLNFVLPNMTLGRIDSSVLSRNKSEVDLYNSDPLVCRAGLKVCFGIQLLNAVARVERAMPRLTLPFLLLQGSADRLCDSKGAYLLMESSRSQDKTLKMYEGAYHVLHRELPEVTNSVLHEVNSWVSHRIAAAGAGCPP
T3 sequence (O35678 whole entry): as above
Sequence of Human MAGL (Q99685 whole entry): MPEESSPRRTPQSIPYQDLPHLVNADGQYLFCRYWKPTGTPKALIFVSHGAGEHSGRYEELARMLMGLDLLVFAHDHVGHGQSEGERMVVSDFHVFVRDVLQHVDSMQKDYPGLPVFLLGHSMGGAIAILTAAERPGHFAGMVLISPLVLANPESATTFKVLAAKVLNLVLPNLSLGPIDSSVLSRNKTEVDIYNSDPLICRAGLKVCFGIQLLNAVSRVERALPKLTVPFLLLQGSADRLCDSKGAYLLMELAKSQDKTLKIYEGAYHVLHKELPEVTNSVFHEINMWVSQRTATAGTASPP

| SMILES | Mouse brain MAGL (% inhibition at 20 mg/kg, p.o.) (Mouse brain MAGL) | IC50 (ABHD6 [1]; competitive ABPP) | pIC50 (Human MAGL; hMAGL in HEK293T cell lysates) | IC50 (FAAH [2]; competitive ABPP) | IC50 (MAGL [3]; competitive ABPP) | IC50 (ABHD6 [1]; competitive ABPP (Table 7)) | IC50 (FAAH [2]; competitive ABPP (Table 7)) | IC50 (MAGL [3]; competitive ABPP (Table 7)) | other results |
| --- | --- | --- | --- | --- | --- | --- | --- | --- | --- |
| O=C(OC(C(F)(F)F)C(F)(F)F)N1CCN(Cc2ccc(Cl)cc2N2CCC3(CCNC3=O)CC2)CC1 [Example 9ax, 1,1,1,3,3,3-hexafluoropropan-2-yl 4-(4-chloro-2-(1-oxo-2,8-diazaspiro[4.5]decan-8-yl)benzyl)piperazine-1-carboxylate] |  |  |  |  |  | > 1000 nM | > 10000 nM | < 100 nM | Mouse brain MAGL (% inhibition at 5 mg/kg, p.o.) (Mouse brain MAGL): 75% |
| O=C(OC(C(F)(F)F)C(F)(F)F)N1CCC(C(c2ccc3c(c2)OCO3)c2ccc3c(c2)OCO3)CC1 [Example 1c, 1,1,1,3,3,3-hexafluoropropan-2-yl 4-(bis(benzo[d][1,3]dioxol-5-yl)methyl)piperidine-1-carboxylate] | >95% | > 1000 nM | > 7.00 | > 10000 nM | < 100 nM |  |  |  |  |
| O=C(OC(C(F)(F)F)C(F)(F)F)N1CCC(C(O)(c2ccc3c(c2)OCO3)c2ccc3c(c2)OCO3)CC1 [Example 1a, 1,1,1,3,3,3-hexafluoropropan-2-yl 4-(bis(benzo[d][1,3]dioxol-5-yl)(hydroxy)methyl)piperidine-1-carboxylate] | >95% | > 1000 nM | > 7.00 | > 10000 nM | < 100 nM |  |  |  |  |
| CC(=O)NC1CCN(c2cc(Cl)ccc2CN2CCN(C(=O)OC(C(F)(F)F)C(F)(F)F)CC2)C1 (centres unmarked) [Example 9af, 1,1,1,3,3,3-hexafluoropropan-2-yl 4-(2-(3-acetamidopyrrolidin-1-yl)-4-chlorobenzyl)piperazine-1-carboxylate] |  |  |  |  |  | > 1000 nM | > 10000 nM | 100 to 1000 nM | ED50 (Mouse brain MAGL): < 4 mg/kg |
| O=C(OC(C(F)(F)F)C(F)(F)F)N1CCN(Cc2cccc(F)c2N2CCOCC2)CC1 [Example 9d, 1,1,1,3,3,3-hexafluoropropan-2-yl 4-[[3-fluoro-2-(morpholin-4-yl)phenyl]methyl]piperazine-1-carboxylate] |  |  |  |  |  | > 1000 nM | > 10000 nM | < 100 nM | ED50 (Mouse brain MAGL): < 4 mg/kg |
| O=C(OC(C(F)(F)F)C(F)(F)F)N1CCN(Cc2ccc(Cl)cc2N2Cc3cccnc3C2)CC1 [Example 9bh, 1,1,1,3,3,3-hexafluoropropan-2-yl 4-(4-chloro-2-(5H-pyrrolo[3,4-b]pyridin-6(7H)-yl)benzyl)piperazine-1-carboxylate] |  |  |  |  |  | 100 to 1000 nM | > 10000 nM | < 100 nM | Mouse brain MAGL (% inhibition at 5 mg/kg, p.o.) (Mouse brain MAGL): 25% |
| COc1cc(N2CCOCC2)ccc1CN1CCN(C(=O)OC(C(F)(F)F)C(F)(F)F)CC1 [Example 9s, 1,1,1,3,3,3-hexafluoropropan-2-yl 4-(2-methoxy-4-morpholinobenzyl)piperazine-1-carboxylate] |  |  |  |  |  | 100 to 1000 nM | > 6250 nM | < 100 nM | ED50 (Mouse brain MAGL): < 4 mg/kg; pIC50 (Human MAGL; hMAGL in HEK293T cell lysates (Table 7)): > 7.00 |
| O=C(OC(C(F)(F)F)C(F)(F)F)N1CCN(Cc2cc(Cl)ccc2N2CCCC2)CC1 [Example 9n, 1,1,1,3,3,3-hexafluoropropan-2-yl 4-[[5-chloro-2-(pyrrolidin-1-yl)phenyl]methyl]piperazine-1-carboxylate] |  |  |  |  |  | > 1000 nM | > 10000 nM | < 100 nM | Mouse brain MAGL (% inhibition at 5 mg/kg, p.o.) (Mouse brain MAGL): 75%; inhibition at 1 µM (ABHD6 [4]): 25 to 75%; inhibition at 1 µM (MAGL [5]): 25 to 75%; inhibition at 1 µM (FAAH [6]): < 25% |
| COC(c1ccc2c(c1)OCO2)(c1ccc2c(c1)OCO2)C1CCN(C(=O)OC(C(F)(F)F)C(F)(F)F)CC1 [Example 1b, 1,1,1,3,3,3-hexafluoropropan-2-yl 4-(bis(benzo[d][1,3]dioxol-5-yl)(methoxy)methyl)piperidine-1-carboxylate] | 13% | 100 to 1000 nM |  | > 10000 nM | < 100 nM |  |  |  |  |
| CN(Cc1cccc(-c2cccnc2)c1)C(=O)OC(C(F)(F)F)C(F)(F)F [Example 3g, 1,1,1,3,3,3-hexafluoropropan-2-yl methyl(3-(pyridin-3-yl)benzyl)-carbamate] | 93% | < 100 nM | > 7.00 | > 10000 nM | 100 to 1000 nM |  |  |  |  |
| CS(=O)(=O)N1CCN(c2cc(Cl)ccc2CN2CCN(C(=O)OC(C(F)(F)F)C(F)(F)F)CC2)CC1 [Example 9bj, 1,1,1,3,3,3-hexafluoropropan-2-yl 4-(4-chloro-2-(4-(methylsulfonyl)piperazin-1-yl)benzyl)piperazine-1-carboxylate] |  |  |  |  |  | 100 to 1000 nM | > 10000 nM | < 100 nM | Mouse brain MAGL (% inhibition at 5 mg/kg, p.o.) (Mouse brain MAGL): 75% |

Continued, in another order:

| Mouse brain MAGL (% inhibition at 20 mg/kg, p.o.) (Mouse brain MAGL) | IC50 (ABHD6 [1]; competitive ABPP) | pIC50 (Human MAGL; hMAGL in HEK293T cell lysates) | IC50 (FAAH [2]; competitive ABPP) | IC50 (MAGL [3]; competitive ABPP) | IC50 (ABHD6 [1]; competitive ABPP (Table 7)) | IC50 (FAAH [2]; competitive ABPP (Table 7)) | IC50 (MAGL [3]; competitive ABPP (Table 7)) | SMILES | other results |
| --- | --- | --- | --- | --- | --- | --- | --- | --- | --- |
| >95% | < 100 nM | > 7.00 | > 10000 nM | < 100 nM |  |  |  | O=C(OC(C(F)(F)F)C(F)(F)F)N1CCN(Cc2cccc(Oc3ccccc3)c2)CC1 [Example 3a, 1,1,1,3,3,3-hexafluoropropan-2-yl 4-(3-phenoxybenzyl)piperazine-1-carboxylate] |  |
| >95% | > 1000 nM | > 7.00 | > 10000 nM | < 100 nM |  |  |  | CC(C)(C)c1ccc(S(=O)(=O)N2CCN(C(=O)OC(C(F)(F)F)C(F)(F)F)CC2)cc1 [Example 4c, 1,1,1,3,3,3-hexafluoropropan-2-yl 4-((4-(tert-butyl)phenyl)sulfonyl)-piperazine-1-carboxylate] |  |
| >95% | 100 to 1000 nM | > 7.00 | > 10000 nM | < 100 nM |  |  |  | O=C(OC(C(F)(F)F)C(F)(F)F)N1CCN(C(c2ccc3c(c2)OCO3)c2ccc3c(c2)OCO3)CC1 [Example 2d, 1,1,1,3,3,3-hexafluoropropan-2-yl 4-(bis(benzo[d][1,3]dioxol-5-yl)methyl)piperazine-1-carboxylate] |  |
|  |  |  |  |  | 100 to 1000 nM | > 10000 nM | < 100 nM | CC(C)n1cc(CN2CCN(C(=O)OC(C(F)(F)F)C(F)(F)F)CC2)c(-c2ccccc2Cl)n1 [Example 10i, 1,1,1,3,3,3-hexafluoropropan-2-yl 4-[[3-(2-chlorophenyl)-1-(propan-2-yl)-1H-pyrazol-4-yl]methyl]piperazine-1-carboxylate] | Mouse brain MAGL (% inhibition at 5 mg/kg, p.o.) (Mouse brain MAGL): 75% |
| >95% | > 1000 nM | > 7.00 | > 10000 nM | < 100 nM |  |  |  | O=C(OC(C(F)(F)F)C(F)(F)F)N1CCN(C(c2ccc(F)cc2)c2ccc(F)cc2)CC1 [Example 2a, 1,1,1,3,3,3-hexafluoropropan-2-yl 4-(bis(4-fluorophenyl)methyl)-piperazine-1-carboxylate] |  |
| 94% | > 1000 nM | > 7.00 | > 10000 nM | 100 to 1000 nM |  |  |  | O=C(OC(C(F)(F)F)C(F)(F)F)N1CCN(C(c2ccc(Br)cc2)c2ccc(Br)cc2)CC1 [Example 2c, 1,1,1,3,3,3-hexafluoropropan-2-yl 4-(bis(4-bromophenyl)methyl)-piperazine-1-carboxylate] |  |
